This is an account of results in patent US20250134799A1, “COMPOSITION CONTAINING NERO DI TROIA POMACE EXTRACT” (PLANBIO COSMETICS SRL, priority 2022, published 2025).

In the data set the test system is HaCaT cells. Nature of the data set: Cellular viability of HaCaT cells by MTS colorimetric assay. In kind it is cell-based, human. The conditions noted are these: 24 hours. On the procedure:
The aim of this study was to evaluate in vitro the effect of GExtract NdT (obtained in Example 1) on the viability of the human keratinocyte cell line HaCaT. The evaluation was performed on cells exposed to GExtract NdT at a dilution of 2% in complete medium for 24 hours. The cellular viability was measured by MTS colorimetric essay through the absorbance measurement obtained from the conversion of a bioreduced tertazolium compound from viable cells into a coloured formazan soluble in the culture medium. The HaCaT cells were exposed for 24 hours to 2% of GExtract NdT of and Triton-X 100 and subsequently the viability was evaluated by MTS assay.
(In general: Tetrazolium assays rely on reduction of a dye to a coloured formazan, in cell work by metabolically active cells.)

A value given as a limit tells only on which side of the number the result lay.

For the substance TRITON-X 100, the “Concentration from which the surfactant lysed all the cells” value is recorded as not below 0.01%. The “% CTR (cell viability, percentage normalized on the control group)” value (0.005% (v/v)) is 52.098%. Further, the “% CTR (cell viability, percentage normalized on the control group)” value (0.01% (v/v)) is listed as 0%. For the same substance, the “% CTR (cell viability, percentage normalized on the control group)” value (0.05% (v/v)) is 0%. In addition, under “0.5% (v/v)”, the “% CTR (cell viability, percentage normalized on the control group)” value came out at 0%.
